Entries after “also recorded” stand apart in the source; their conditions may differ.
What was measured:
PrP^C [1] = test system: PrP^C
[2] = set-up: method as in 3 sources, one per row (each row's own in cited_ref): ref 13 = [13]; PMID 9600986; doi:10.1073/pnas.95.11.6448; 13. Lambert MP , Diffusible, nonfibrillar ligands derived from Abeta1-42 are potent central nervous system neurotoxins . Proc Natl Acad Sci U S A 95 , 6448 – 6453 ( 1998 ). 9600986 10.1073/pnas.95.11. ||| ref 15 = [15]; PMID 26018073; doi:10.1074/jbc.M115.643577; 15. Kostylev MA , Prion-Protein-interacting Amyloid-beta Oligomers of High Molecular Weight Are Tightly Correlated with Memory Impairment in Multiple Alzheimer Mouse Models . J Biol Chem 290 , 17415 – ||| ref 14 = [14]; PMID 19216516; doi:10.1021/bi802046n; 14. Yu L , Structural characterization of a soluble amyloid beta-peptide oligomer . Biochemistry 48 , 1870 – 1877 ( 2009 ). 19216516 10.1021/bi802046n; details: cited from earlier work
Aß42 [3] = assay: Thioflavin-T polymerization of Aß42; format: biochemical
[4] = Electron microscopy length of Aß assemblies; format: physicochemical; details: for length (mean ± sd): electron microscopy; for filament length, overall: human AD brain
Aß = format: biochemical, mouse
PrP^C [5] = test system: PrP^C; remark: listed apart in the source
[6] = test system: human iPSC-derived cortical excitatory neurons; assay: Synapse loss in human iPSC-derived cortical neurons; format: cell-based; details: 7 days
Protocol: Human neurons derived from induced pluripotent stem cells (iPSCs) with Neurogenin2 (Ngn2) stably integrated under doxycycline control were prepared and cultured as described. Poly-D-Lysine-coated 384 well plates (Corning # 354663) were seeded with 2,000 cells in 50 μl of Classic Neuronal Media (CNR: 50% DMEM/F12 (Gibco), 50% Neurobasal-A (Gibco), 0.5X Glutamax (Gibco), 1X MEM Non-Essential Amino Acids Solution (Gibco), 0.5X B27 supplement (Gibco), 0.5X N-2 supplement (Gibco), 10 ng/ml BDNF (PeproTech), 10 ng/ml NT-3 (PeproTech), 1 μg/ml mouse Laminin (Gibco)) containing 2 μg/ml doxycycline hydrochloride (Sigma). On DIV 7 and 14, 50 μl of CNR without doxycycline hydrochloride was added to each well. Every week after that, 30 μl of media was removed from each well and replaced with 30 μL of fresh media. Cells were grown for at least 60 days before treatment with receptor-bound Aßo. […]
Image analysis was performed using ImageXpress built in analysis software, MetaXpress. […] To measure synapsin1/2 density on MAP2, the number of synaptic puncta overlapping with the MAP2 mask were counted and then divided by the area of the MAP2 mask. To measure Synapsin1/2 colocalized with homer1b/c density on MAP2, first, only the round objects of Synapsin1/2 and Homer1b/c colocalized with each other that also overlap with MAP2 were counted and divided by the MAP2 area. […]

[7] = Monomer count from cryo-EM rung spacing and length; format: physicochemical; details: 4.75 Å rung spacing, 65 nm length, two monomers per rung
Source text: Data sets were processed using standard amyloid helical reconstruction procedures implemented in RELION 4.0 [49]. Dose-fractionated micrograph movies were corrected for beam-induced motion using the RELION’s own implementation of motion correction. Contrast transfer function (CTF) parameters were estimated from the motion-corrected micrographs using CTFFIND-4.1 [51]. The start-end coordinates of the Aß filaments were manually marked in the aligned micrographs using RELION 4.0. Segments were extracted with an inter-box distance of 12-Å, a helical rise of 4.75 Å and using a box size of 200 pixels with 1.068 Å per pixel. Extracted segments were subjected to several rounds of reference free two-dimensional (2D) classification to remove suboptimal segments and to select for segments showing detailed features along the filament axis. A three-dimensional (3D) cylinder was generated using the “relion_helix_toolbox” utility and used as reference for an initial 3D classification of the helical segments retained after the 2D classification steps. The initial 3D classification performed on the set of optimal 2D-segments assumed a helical rise of 4.75 Å and a value of the helical twist as estimated from the crossover distances in the 2D class averages. […]

Aß42 [8] = assay: Filament length at end of polymerization reactions (negative stain EM)
[9] = Size exclusion chromatography with PLISA readout; format: physicochemical; details: Superdex 200, purified Aß spiked in control brain TBS lysate, PLISA of fractions
anti-Aß antibodies = assay: Immunoblot epitope profiling, receptor-bound vs sarkosyl-insoluble Aß; format: binding; details: n=4 AD brains; for amino-terminal epitope immunoreactivity, receptor-bound vs sarkosyl-insoluble: normalized to mid-region antibody 4G8, HFIP-monomerized
Source text: The tubes were then opened and kept in the fume hood overnight at room temperature to evaporate the HFIP. The remaining protein films were resuspended in 1X Laemmli buffer supplemented with 8 M urea. The resulting samples were separated on 4-20% gradient Criterion Tris-Glycine gels (BioRad), transferred onto the nitrocellulose membranes, blocked with Rockland fluorescent Western Blot blocking buffer and immunoprobed with the appropriate detection antibodies overnight at 4C, washed in PBST, incubated the IRdye conjugated secondary antibodies (LiCor) for 1 h at RT and imaged on the near-infrared scanner (LiCor Odyssey). Both primary and secondary antibody were diluted in Rockland fluorescent Western Blot blocking buffer. The immunoblot data quantitation was performed using the LiCor ImageStudio software.

PrP^C [10] = details: cited from earlier work
IC16 antibody = assay: IC16 capture ELISA; format: binding
Aß species = details: reported; cited from earlier work
Source text: For this comparison, the PSCMA-released Aß pool prior to antibody affinity retention was compared to PSCMA-resistant material containing plaque-associated Aß. The PSCMA-resistant material was further extracted with sarkosyl, and the sarkosyl-insoluble pellet resuspended for immunoblot. The Aß ...

receptor-bound Aß = assay: Lecanemab capture ELISA; format: binding, human; details: Lecanemab coated plate, D54D2 detection; Extended Data Fig. 1: 5 μg/mL coating, vs isotype control and no antibody wells

Aß42 monomers: HFIP-monomerized synthetic Aß42
apparent avidity for PrP^C in PLISA (PrP^C [1]): nil or at least two orders of magnitude lower

amyloid-ß derived diffusible ligands [synthetic Aß42 ADDL]
PrP^C binding, summary (PrP^C [1]): binds | apparent MR ([2]; no reference at place): 500,000 | assembly size ([2]; synthetic Aß42 in F12 media, metastable spherical assemblies): 500 kDa

cellular prion protein [PrP^C]
effect on Aß42 amyloid filament formation (Aß42 [3]): inhibits Aß42 amyloid filament formation | effect on rate of Aß42 polymerization seeded by fibrils (Aß42 [3]; pH 7.4): reduced the rate of Aß42 polymerization or Aß42 polymerization seeded by fibrils | effect on rate of Aß42 polymerization, unseeded (Aß42 [3]; pH 7.4): reduced the rate of Aß42 polymerization

receptor-bound Aß: PSCMA-released, IC16-immunopurified Aß filament pool from Alzheimer's disease brain
length (mean ± sd) ([4]; second of three AD brains): 70±24.4 nm | length (mean ± sd) ([4]; third of three AD brains): 71±29.2 nm | filament length, overall [4]: about 65 nm | filament length, overall ([4]; listed as Receptor-bound amyloid-ß): 65 nm | amount detected in APP/PS1, Prnp−/− mice (vs WT Prnp background) (Aß): Significantly lower amount | reduction of Aß released by PSCMA when PrP^C was absent (Aß): about 50% | maximal ThT fluorescence (Aß42 [3]; 20 nM monomer equivalent seeds, 5 μM Aß42, vs no seeds): reduced the maximal fluorescence achieved | effect on Aß42 polymerization rate as seed (Aß42 [3]; 20 nM monomer equivalent, 5 μM Aß42, n=19 experiments, Brains A-D, vs no seeds): significantly slowed polymerization | distance of PrP^C-associated gold particles from filament tips (PrP^C [5]): ≤ 5 nm | dendrite density (MAP2 area) ([6]; 160 pM Brain A, 80 pM Brain B, 16 pM Brain C, vs control brain fraction): does not change | synaptic density (Synapsin1/Homer1b/c overlap at MAP2 dendrites) ([6]; 16-160 pM assembly (4-40 nM monomer equivalent), three AD brains vs control brain fraction): significantly reduced; also recorded: potently suppresses synapse density | number of monomers per assembly [7]: about 300 | PrP^C binding, summary (PrP^C [1]): binds | apparent avidity for PrP^C in PLISA (PrP^C [1]): binds PrP^C with the affinity similar to that for synthetic Aß oligomeric preps (F12) | length of filaments at completion of polymerization (Aß42 [8]; 5 μM Aß42, without seeds or with 20 nM seeds, negative stain EM): 200-500 nm | filament length compared with other seeds / no seeds (Aß42 [8]; 4 different brains, 20 nM seeds, 5 μM Aß42): significantly shorter | size by migration of globular proteins [9]: ~650 kDa | Aß40 reactivity, receptor-bound vs fibrillary pool (anti-Aß antibodies; carboxyl terminus, normalized to mid-region antibody): greater for Aß40 in the receptor-bound pool | amino-terminal epitope immunoreactivity, receptor-bound vs sarkosyl-insoluble (anti-Aß antibodies): five-fold enriched | amino-terminal epitope immunoreactivity, receptor-bound vs sarkosyl-insoluble (anti-Aß antibodies; listed as Receptor-bound Aß): significant increase in the immunoreactivity with antibodies directed against N-terminus of Aß | pyroglutamylated Aß reactivity, receptor-bound vs insoluble fibrillary Aß (anti-Aß antibodies; normalized to mid-region antibody): present equally in both receptor-bound Aß and insoluble fibrillary Aß

amyloid-ß [Aß]
off-rate from PrP^C (PrP^C [10]): slow off-rate with a half-life of days

Aß42 globulomer: Globulomers of Aß42 are prepared in SDS and then isolated as stable 12-mers
affinity/activity in IC16 capture ELISA (IC16 antibody): much higher activity | PrP^C binding, summary (PrP^C [1]): binds | apparent avidity for PrP^C in PLISA (PrP^C [1]): similar | assembly state ([2]; prepared in SDS): stable 12-mers

B1: Lecanemab: FDA approved anti-Aß antibody (antibody, chains of the INN, looked up, V domains shown)
VH: EVQLVESGGGLVQPGGSLRLSCSASGFTFSSFGMHWVRQAPGKGLEWVAYISSGSSTIYYGDTVKGRFTISRDNAKNSLFLQMSSLRAEDTAVYYCAREGGYYYGRSYYTMDYWGQGTTVTVSS
VL: DVVMTQSPLSLPVTPGAPASISCRSSQSIVHSNGNTYLEWYLQKPGQSPKLLIYKVSNRFSGVPDRFSGSGSGTDFTLRISRVEAEDVGIYYCFQGSHVPPTFGPGTKLEIK
binding preference among Aß species (Aß species): preferential affinity for oligomeric and protofibrillary Aß species, with less avidity for Aß filaments and minimal interaction with monomeric Aß | affinity / reactivity for receptor-bound Aß (receptor-bound Aß): high affinity for the receptor-bound Aß species; also recorded: receptor-bound Aß is recognized by this antibody; also recorded: binds to ELISA plates coated with 5 μg/mL Lecanamab but not to wells coated with isotype control or to no antibody wells

Source: paper doi:10.1101/2025.10.10.681740, “Distinct Filament Conformation for Receptor-Bound Amyloid-ß from Alzheimer’s Disease Brain” (bioRxiv, 2025)
